How the values were obtained:
[1] = n-Octanol/water partition coefficient, shake-flask method; type: physicochemical; details: room temperature
Procedure: The lipophilicity of the complexes was measured by the shake-flask method. Distilled water and n-octanol were mixed vigorously for 24 h at 25 °C, to promote solvent saturation in both phases, before the experiments. […] Aliquots of stock solutions were equilibrated with octanol for 4 h in a mechanical shaker. The phase ratio was 2 mL/2 mL (water/n-octanol). The aqueous and octanol layers were carefully separated (by centrifugation at 5000 rpm for 10 min), and UV–vis absorption spectra of the compounds were registered in both phases. The concentration for each sample was determined using the calibration curve. Triplicate experiments have been performed for each complex and the averages were calculated.

HT29 colon cancer cells = assay: MTT cytotoxicity assay, HT29; type: cell-based, human; details: HT29, 72 h, mean ± SD n = 3
Procedure: The cytotoxic activity of all complexes was screened against A2780 (ovarian, Sigma-Aldrich, Lisboa, Portugal), MDAMB231 (breast, triple negative, ATCC), and HT29 (colon, ATCC) human cancer cells. Cells were grown in RPMI 1640 (A2780) or DMEM containing GlutaMax-I (MDAMB231), or McCoy’s (HT29) supplemented with 10% FBS and 1% penicillin/streptomycin (Invitrogen, Lisboa, Portugal). All cell lines were kept in a CO2 incubator (Heraeus, Hanau, Germany) with 5% CO2 at 37 °C in a humidified atmosphere. Cell viability was measured using the colorimetric MTT (3-(4,5-dimethylthiazol-2-yl)-2,5-diphenyltetrazolium bromide) assay. For the assays, cells were seeded in 200 μL of complete medium in 96-well plates and incubated at 37 °C for 24 h prior to complex treatment to allow cell adherence. The stock solutions in water (20 mM) of the complexes were freshly prepared and used for sequential dilutions in medium within the concentration range of 10^−10–10^−4 M. Cisplatin was also included in this study as a positive control. After careful removal of the medium, […] of a serial dilution of compounds in fresh medium was added to the cells, and incubation was carried out for 72 h at 37 °C. At the end of the treatment, the medium was discarded, and the cells were incubated with […] of an MTT solution in PBS (0.5 mg mL^−1). After 3 h incubation, medium was removed, and DMSO was added to solubilize the purple formazan crystals formed. The absorbance at 570 nm was measured using a plate spectrophotometer (Power Wave Xs, Bio-Tek, Winooski, VT, USA). Each experiment was repeated at least three times and each concentration tested in at least six replicates. The IC50 values were calculated from dose–response curves analyzed with the GraphPad Prism software (version 5.0).

Substance: [RuCp(mTPPMSNa)(bopy)][CF3SO3] [Compound 6]
- Log Po/w [1]: 5.68 ± 0.05
- IC50 (HT29 colon cancer cells): 72.4 ± 50 µM

— paper PMC9321894, “Design and Anticancer Properties of New Water-Soluble Ruthenium–Cyclopentadienyl Complexes” (Pharmaceuticals, 2022)
